Toxic doses and inconclusive results are not listed.
System: BDF1 mice, P388 leukemia ip, median survival T/C
Assay: NCI In Vivo Anticancer Drug Screen. Data for tumor model P388 Leukemia (intraperitoneal) in B6D2F1 (BDF1) mice
Conditions: endpoint: median survival time, higher = longer survival
In short: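 Reported as T/C, where T is the survival measurement in dosed animals and C the same measurement in vehicle controls.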

[1] = dose: 50.0 mg/kg/injection, schedule: Q01DX009 (ip), vehicle: Klucel (hydroxypropylcellulose) (HPC)
[2] = dose: 100.0 mg/kg/injection, schedule: Q01DX009 (ip), vehicle: Klucel (hydroxypropylcellulose) (HPC)
[3] = dose: 100.0 mg/kg/injection, schedule: Q01DX009 (ip), vehicle: saline with Tween-80
[4] = dose: 200.0 mg/kg/injection, schedule: Q01DX009 (ip), vehicle: saline with Tween-80
[5] = dose: 50.0 mg/kg/injection, schedule: Q01DX009 (ip), vehicle: other
[6] = dose: 100.0 mg/kg/injection, schedule: Q01DX009 (ip), vehicle: other
[7] = dose: 200.0 mg/kg/injection, schedule: Q01DX009 (ip), vehicle: other
[8] = dose: 25.0 mg/kg/injection, schedule: Q01DX009 (ip), vehicle: saline with Tween-80
[9] = dose: 50.0 mg/kg/injection, schedule: Q01DX009 (ip), vehicle: saline with Tween-80
[10] = dose: 100.0 mg/kg/injection, schedule: Q04DX003 (ip), vehicle: saline with Tween-80
[11] = dose: 200.0 mg/kg/injection, schedule: Q04DX003 (ip), vehicle: saline with Tween-80
[12] = dose: 400.0 mg/kg/injection, schedule: Q04DX003 (ip), vehicle: saline with Tween-80

Nc1ccc(C(=O)O)cc1S(=O)(=O)c1cc(C(=O)O)ccc1N was tested, and the T/C [1] was 88 % of control and the T/C [2] was 91 % of control.
With ClC1=NC(Cl)C(Cl)=N/C1=N\c1ncn[nH]1 (configuration not stated) the T/C (dose: 6.25 mg/kg/injection, schedule: Q01DX009 (ip), vehicle: saline with Tween-80) was 110 % of control, the T/C (dose: 22.0 mg/kg/injection, schedule: Q04DX003 (ip), vehicle: saline with Tween-80) was 113 % of control and the T/C (dose: 50.0 mg/kg/injection, schedule: Q04DX003 (ip), vehicle: saline with Tween-80) was 118 % of control. For the same compound, the T/C (dose: 75.0 mg/kg/injection, schedule: Q04DX003 (ip), vehicle: saline with Tween-80) was 90 % of control.
For COC(=O)C1C2CCc3cc(OC)ccc3C2CCC1(C)C(=O)O (configuration not stated), the T/C (dose: 100.0 mg/kg/injection, schedule: Q01DX001 (ip), vehicle: saline sonified) was 100 % of control, the T/C (dose: 200.0 mg/kg/injection, schedule: Q01DX001 (ip), vehicle: saline sonified) was 104 % of control and the T/C (dose: 400.0 mg/kg/injection, schedule: Q01DX001 (ip), vehicle: saline sonified) was 100 % of control.
With CN(/N=N/c1nc[nH]c1C(N)=O)C(C)(C)C the T/C [2] was 117 % of control, the T/C (dose: 200.0 mg/kg/injection, schedule: Q01DX009 (ip), vehicle: Klucel (hydroxypropylcellulose) (HPC)) was 108 % of control and the T/C (dose: 400.0 mg/kg/injection, schedule: Q01DX009 (ip), vehicle: Klucel (hydroxypropylcellulose) (HPC)) was 88 % of control.
In the case of NC(=O)CC(NC(=O)OCc1ccccc1)c1nn[nH]n1 (configuration not stated), the T/C [3] is reported as 90 % of control, the T/C [4] is reported as 100 % of control and the T/C (dose: 400.0 mg/kg/injection, schedule: Q01DX009 (ip), vehicle: saline with Tween-80) is reported as 95 % of control.
For Cc1ccc(S(=O)CC(Cl)c2ccccc2)cc1 (configuration not stated), the T/C [5] was 105 % of control, the T/C [6] was 106 % of control and the T/C [7] was 100 % of control.
For [CH3][Sn]([CH3])([Cl])[S]CCN, the T/C (dose: 6.25 mg/kg/injection, schedule: Q01DX009 (ip), vehicle: saline) was 123 % of control.
In the case of CCCCCC(=O)c1ccc(OCCCN2CCN(C(=O)OCC)CC2)cc1, the T/C [3] is reported as 105 % of control and the T/C [4] is reported as 104 % of control.
With Cc1ccc(O)cc1Cl the T/C (dose: 100.0 mg/kg/injection, schedule: Q01DX009 (ip), vehicle: saline) was 96 % of control, the T/C (dose: 200.0 mg/kg/injection, schedule: Q01DX009 (ip), vehicle: saline) was 104 % of control and the T/C (dose: 400.0 mg/kg/injection, schedule: Q01DX009 (ip), vehicle: saline) was 104 % of control.
CC(CC(O)C(C)(C)C)C(C)(C)C (configuration not stated) was tested, and the T/C (dose: 12.5 mg/kg/injection, schedule: Q01DX009 (ip), vehicle: saline with Tween-80) was 117 % of control, the T/C [8] was 110 % of control and the T/C [9] was 117 % of control.
With O=C/C=C/c1cccc([N+](=O)[O-])c1 the T/C [8] was 110 % of control, the T/C [9] was 115 % of control and the T/C [3] was 119 % of control.
With O=S(=O)(c1ccccc1)N1CCOC1=S the T/C [10] was 114 % of control, the T/C [11] was 95 % of control and the T/C [12] was 95 % of control.
CCOC(=O)c1c(OC(C)=O)cc2c(c1OC(C)=O)-c1ccccc1CC2 was tested, and the T/C [10] was 90 % of control, the T/C [11] was 97 % of control and the T/C [12] was 99 % of control.
For CCOC(CN1CCN(CC(C)C(=O)c2ccccc2)CC1)c1ccccc1 (configuration not stated), the T/C [9] was 109 % of control and the T/C [3] was 118 % of control.
CSc1ccccc1C(C)(C)O was tested, and the T/C [5] was 100 % of control, the T/C [6] was 104 % of control and the T/C [7] was 113 % of control.
With [N-]=[N+]=NCc1cnccn1 the T/C (dose: 12.5 mg/kg/injection, schedule: Q01DX009 (ip), vehicle: saline) was 100 % of control and the T/C (dose: 25.0 mg/kg/injection, schedule: Q01DX009 (ip), vehicle: saline) was 113 % of control.
With O=S(=O)(O)c1ccc(-c2ccccc2)cc1 the T/C (dose: 25.0 mg/kg/injection, schedule: Q01DX009 (ip), vehicle: Klucel (hydroxypropylcellulose) (HPC)) was 95 % of control, the T/C [1] was 87 % of control and the T/C [2] was 95 % of control. The T/C (dose: 100.0 mg/kg/injection, schedule: Q04DX003 (ip), vehicle: Klucel (hydroxypropylcellulose) (HPC)) was 88 % of control.
CCOC(=O)CN1C(=O)S/C(=C/c2ccc([N+](=O)[O-])o2)C1=O was tested, and the T/C (dose: 100.0 mg/kg/injection, schedule: Q04DX002 (ip), vehicle: saline with Tween-80) was 94 % of control and the T/C (dose: 200.0 mg/kg/injection, schedule: Q04DX002 (ip), vehicle: saline with Tween-80) was 105 % of control.
N/N=C(/c1ccccc1)c1nc(-c2ccccc2)n[nH]c1=O was tested, and the T/C [9] was 111 % of control, the T/C [3] was 106 % of control and the T/C [4] was 112 % of control.

From PubChem BioAssay AID328 (DTP/NCI, 2004)
